# Measurements reported in patent US8574607B2, “Spiroheterocyclic thiofuran dione derivatives” (Syngenta Crop Protection, Inc., priority 2009, dated 2013).
# Where two headings read alike, the source gives them in different places.
# Key:
# [1] = tested on: Myzus persicae (Green Peach Aphid); test: Example B1: Myzus persicae, mixed population, feeding/residual contact activity, preventive (sprayed sunflower leaf discs); settings: foliar, 144 h, read-out: activity (mortality)
# [2] = tested on: Thrips tabaci (Onion Thrips); settings: foliar, 144 h, read-out: activity (mortality)
# [3] = tested on: Myzus persicae (Green Peach Aphid); settings: 144 h, read-out: activity (mortality)
# [4] = tested on: Myzus persicae (Green Peach Aphid); test: Example B11: Myzus persicae, mixed population, feeding/residual contact activity (sprayed pepper plants); type: in vivo; settings: 144 h, spray chamber, 6 days after treatment, read-out: activity against Myzus persicae (mortality)
# [5] = tested on: Tetranychus urticae (Two-Spotted Spider Mite); settings: foliar, 192 h, read-out: activity (egg, larval and adult mortality)
# [6] = tested on: Aphis craccivora (Cowpea Aphid); test: whole plant or invertebrate; type: in vivo; settings: 144 h, read-out: activity (mortality)
# Excerpt: (§1) Activity Against Aphis craccivora (Cowpea Aphid)
# (Mixed Population, Contact/Feeding)
# 6 days after treatment, samples are checked for mortality.
# [7] = tested on: Nilaparvata lugens (Brown Rice Planthopper); test: Example B6: Nilaparvata lugens, larvicide, feeding/contact (rice seedlings); settings: in Oryza sativa, read-out: activity (mortality, growth regulation, effects on F1 generation)
# [8] = tested on: Myzus persicae (Green Peach Aphid); test: Example B10: drench activity against Myzus persicae (pea seedlings in field soil); settings: 168 h, read-out: drench activity (mortality)
# [9] = tested on: Aphis craccivora (Cowpea Aphid); test: Example B8: Aphis craccivora, mixed population, systemic/feeding (roots of pea seedlings in test solution); type: in vivo; settings: 144 h, read-out: activity (mortality)
# Excerpt: as §1
# (Mixed Population, Systemic/Feeding)
# 6 days later, samples are checked for mortality.
# [10] = tested on: Aphis craccivora (Cowpea Aphid); test: whole plant or invertebrate; settings: in Phaseolus vulgaris, 120 h, read-out: translaminar activity (mortality)
SMILES,mortality at 400 ppm [1],mortality at 400 ppm [3],mortality at 400 ppm [5],further results
"CON1CCC2(CC1)OC(=O)C(c1cc(C)c(C)cc1C)=C2O [P2.2, 4-Hydroxy-8-methoxy-3-(2,4,5-trimethyl-phenyl)-1-oxa-8-aza-spiro[4.5]dec-3-en-2-one]",> 80%,> 80%,–,mortality at 400 ppm [2]: > 80%; mortality at 200 ppm [4]: ≥ 80%
CON1CCC2(CC1)OC(=O)C(c1ccc(C)cc1C)=C2O [P2.8],> 80%,> 80%,–,mortality at 200 ppm [4]: ≥ 80%
"CCOC(=O)OC1=C(c2cc(C)ccc2C)C(=O)OC12CCN(OC)CC2 [P1.1, Carbonic acid 3-(2,5-dimethyl-phenyl)-8-methoxy-2-oxo-1-oxa-8-aza-spiro[4.5]dec-3-en-4-yl ester ethyl ester]",–,> 80%,–,mortality at 200 ppm [4]: ≥ 80%
CCOC(=O)OC1=C(c2c(C)cc(C)c(Cl)c2C)C(=O)OC12CCN(OC)CC2 [P1.18],–,> 80%,–,–
CON1CCC2(CC1)OC(=O)C(c1c(C)cc(C)c(Cl)c1C)=C2O [P2.13],–,> 80%,> 80%,–
"CON1CCC2(CC1)SC(=O)C(c1c(C)cc(C)cc1C)=C2O [P2.4, 4-hydroxy-8-methoxy-3-(2,4,6-trimethyl-phenyl)-1-thia-8-aza-spiro[4.5]dec-3-en-2-one]",> 80%,–,> 80%,–
CON1CCC2(CC1)OC(=O)C(c1ccc(Cl)cc1Cl)=C2O [P2.9],–,–,> 80%,–
"CCOC(=O)OC1=C(c2c(C)cc(C)cc2C)C(=O)OC12CCN(OC)CC2 [P1.5, Carbonic acid ethyl ester 8-methoxy-2-oxo-3-(2,4,6-trimethylphenyl)-1-oxa-8-aza-spiro[4.5]dec-3-en-4-yl ester]",> 80%,> 80%,–,–
CCOC(=O)OC1=C(c2c(C)cc(C)cc2C)C(=O)OC12CCN(OCC)CC2 [P1.17],> 80%,> 80%,> 80%,mortality at 400 ppm [2]: > 80%
CON1CCC2(CC1)OC(=O)C(c1ccc(Cl)cc1)=C2O [P2.35],–,–,> 80%,–
CON1CCC2(CC1)OC(=O)C(c1c(C)cc(C)cc1C)=C2OC(=O)C(C)(C)C [P1.6],> 80%,> 80%,–,mortality at 200 ppm [4]: ≥ 80%
CCc1cc(C)cc(C)c1C1=C(O)C2(CCN(OC)CC2)OC1=O [P2.51],> 80%,> 80%,> 80%,–
CCOC(=O)OC1=C(c2ccc(C)cc2C)C(=O)OC12CCN(OC)CC2 [P1.13],> 80%,> 80%,–,mortality at 400 ppm [2]: > 80%; mortality at 200 ppm [4]: ≥ 80%
C=Cc1cc(C)c(C2=C(OC(=O)OCC)C3(CCN(OC)CC3)OC2=O)c(C)c1 [P1.12],–,> 80%,–,–
CCOC(=O)OC1=C(c2c(F)ccc(Br)c2Cl)C(=O)OC12CCN(OC)CC2 [P1.29],–,–,> 80%,–
CCOC(=O)OC1=C(c2c(C)cc(Br)cc2C)C(=O)OC12CCN(OC)CC2 [P1.8],–,> 80%,–,–
CCOC(=O)OC1=C(c2cc(C)ccc2OC)C(=O)OC12CCN(OC)CC2 [P1.16],–,–,–,melting point: 81 to 83 °C
CON1CCC2(CC1)OC(=O)C(c1c(C)cc(Cl)cc1C)=C2O [P2.6],> 80%,–,> 80%,–
CON1CCC2(CC1)OC(=O)C(c1c(C)cc(Br)cc1Cl)=C2O [P2.47],–,–,–,mortality at 200 ppm [4]: ≥ 80%
C=Cc1cc(C)c(C2=C(O)C3(CCN(OC)CC3)OC2=O)c(C)c1 [P2.7],> 80%,> 80%,–,–
COc1c(Cl)cccc1C1=C(O)C2(CCN(OC)CC2)OC1=O [P2.37],> 80%,–,–,–
C=Cc1cc(C)cc(C)c1C1=C(O)C2(CCN(OC)CC2)OC1=O [P2.50],> 80%,> 80%,–,–
CON1CCC2(CC1)OC(=O)C(c1c(Br)cc(C)cc1Br)=C2O [P2.40],–,–,> 80%,–
"CON1CCC2(CC1)OC(=O)C(c1c(C)cc(C)cc1C)=C2O [P2.3, 4-hydroxy-8-methoxy-3-(2,4,6-trimethyl-phenyl)-1-oxa-8-aza-spiro[4.5]dec-3-en-2-one]",> 80%,> 80%,> 80%,mortality at 400 ppm [6]: > 80%; mortality at 400 ppm [7]: > 80%; mortality at 25 ppm [8]: > 80%; mortality at 25 ppm [9]: > 80%; mortality at 400 ppm [10]: > 80%

SMILES,mortality at 400 ppm [1],mortality at 400 ppm [3],mortality at 400 ppm [5],further results
CCOC(=O)OC1=C(c2cc(C)c(Cl)cc2C)C(=O)OC12CCN(OC)CC2 [P1.33],–,> 80%,–,–
CON1CCC2(CC1)OC(=O)C(c1cc(C)c(C)cc1C)=C2OC(=O)C(C)(C)C [P1.4],> 80%,> 80%,–,mortality at 200 ppm [4]: ≥ 80%
CCON1CCC2(CC1)OC(=O)C(c1c(C)cc(C)cc1C)=C2O [P2.12],> 80%,> 80%,> 80%,mortality at 400 ppm [2]: > 80%
CCOC(=O)OC1=C(c2c(C)cc(C)cc2C)C(=O)OC12CCN(OCCOC)CC2 [P1.19],–,> 80%,> 80%,–
"CON1CCC2(CC1)OC(=O)C(c1cc(C)ccc1C)=C2O [P2.1, 3-(2,5-dimethyl-phenyl)-4-hydroxy-8-methoxy-1-oxa-8-aza-spiro[4.5]dec-3-en-2-one]",> 80%,> 80%,–,mortality at 200 ppm [4]: ≥ 80%
CCOC(=O)OC1=C(c2c(C)cc(C)c(Br)c2C)C(=O)OC12CCN(OC)CC2 [P1.39],–,–,–,melting point: 52 to 54 °C
CON1CCC2(CC1)OC(=O)C(c1cc(C)ccc1C)=C2OC(=O)C(C)(C)C [P1.2],> 80%,> 80%,–,–
CCOC(=O)OC1=C(c2cc(C)c(C)cc2C)C(=O)OC12CCN(OC)CC2 [P1.3],> 80%,> 80%,–,mortality at 200 ppm [4]: ≥ 80%
"CCOC(=O)OC1=C(c2c(C)cc(C)cc2C)C(=O)SC12CCN(OC)CC2 [P1.7, Carbonic acid ethyl ester 8-methoxy-2-oxo-3-(2,4,6-trimethylphenyl)-1-thia-8-aza-spiro[4.5]dec-3-en-4-yl ester]",> 80%,–,–,–
CON1CCC2(CC1)OC(=O)C(c1c(C)cc(C)cc1C1CC1)=C2O [P2.49],> 80%,> 80%,> 80%,–
CON1CCC2(CC1)OC(=O)C(c1c(C)cc(C)cc1C)=C2OC(=O)CC(C)(C)C [P1.9],> 80%,> 80%,–,–
COc1ccccc1C1=C(O)C2(CCN(OC)CC2)OC1=O [P2.34],> 80%,–,–,–
CCOC(=O)OC1=C(c2c(C)cc(C)cc2C2CC2)C(=O)OC12CCN(OC)CC2 [P1.34],–,> 80%,> 80%,–
CON1CCC2(CC1)OC(=O)C(c1ccc(F)cc1)=C2O [P2.20],–,–,> 80%,–
CCOC(=O)OC1=C(c2c(C)ccc(Cl)c2C)C(=O)OC12CCN(OC)CC2 [P1.15],–,–,> 80%,–
CCOC(=O)OC1=C(c2c(Cl)cc(Br)cc2Cl)C(=O)OC12CCN(OC)CC2 [P1.30],–,–,–,melting point: 122 to 125 °C
CCOC(=O)OC1=C(c2c(C)cc(Cl)cc2C)C(=O)OC12CCN(OC)CC2 [P1.11],> 80%,> 80%,> 80%,"mortality at 400 ppm [7]: > 80%; mortality at 25 ppm [8]: > 80%; mortality at 200 ppm [4]: ≥ 80%; mortality at 25 ppm ([9]; 25 ppm, roots in test solution, 6 days): > 80%"
CCOC(=O)OC1=C(c2c(C)cccc2C)C(=O)OC12CCN(OC)CC2 [P1.40],–,–,–,melting point: 93 to 94 °C
CON1CCC2(CC1)OC(=O)C(c1c(C)cc(Br)cc1C)=C2O [P2.5],> 80%,> 80%,–,–
CCOC(=O)OC1=C(c2ccc(Cl)cc2Cl)C(=O)OC12CCN(OC)CC2 [P1.14],> 80%,> 80%,–,–
CON1CCC2(CC1)OC(=O)C(c1cc(C)c(Cl)cc1C)=C2O [P2.48],–,–,–,mortality at 200 ppm [4]: ≥ 80%
COCCON1CCC2(CC1)OC(=O)C(c1c(C)cc(C)cc1C)=C2O [P2.14],–,–,> 80%,mortality at 400 ppm [2]: > 80%
CCC(C)(C)C(=O)OC1=C(c2c(C)cc(C)cc2C)C(=O)OC12CCN(OC)CC2 [P1.10],> 80%,> 80%,> 80%,–
